Assay results as given in US20140005163A1 (NOVARTIS AG, priority 2010, published 2014).

How the values were obtained:
PI3K beta = biological target: T1, PI3K beta (Homo sapiens, UniProt P42338); assay: PI3K beta kinase assay (Kinase-Glo luminescence); type: biochemical
T1 construct: for the full-length p110-b subunit are generated and fused by overlapping PCR; p85(iSH2) fusion partner (see partner chain) (N); His tag (C); made in house; host or cells: baculovirus; Tn5 (Trichoplusia ni) or TiniPro insect cells
T1 sequence (P42338 with tags, fused parts or gaps limits assumed): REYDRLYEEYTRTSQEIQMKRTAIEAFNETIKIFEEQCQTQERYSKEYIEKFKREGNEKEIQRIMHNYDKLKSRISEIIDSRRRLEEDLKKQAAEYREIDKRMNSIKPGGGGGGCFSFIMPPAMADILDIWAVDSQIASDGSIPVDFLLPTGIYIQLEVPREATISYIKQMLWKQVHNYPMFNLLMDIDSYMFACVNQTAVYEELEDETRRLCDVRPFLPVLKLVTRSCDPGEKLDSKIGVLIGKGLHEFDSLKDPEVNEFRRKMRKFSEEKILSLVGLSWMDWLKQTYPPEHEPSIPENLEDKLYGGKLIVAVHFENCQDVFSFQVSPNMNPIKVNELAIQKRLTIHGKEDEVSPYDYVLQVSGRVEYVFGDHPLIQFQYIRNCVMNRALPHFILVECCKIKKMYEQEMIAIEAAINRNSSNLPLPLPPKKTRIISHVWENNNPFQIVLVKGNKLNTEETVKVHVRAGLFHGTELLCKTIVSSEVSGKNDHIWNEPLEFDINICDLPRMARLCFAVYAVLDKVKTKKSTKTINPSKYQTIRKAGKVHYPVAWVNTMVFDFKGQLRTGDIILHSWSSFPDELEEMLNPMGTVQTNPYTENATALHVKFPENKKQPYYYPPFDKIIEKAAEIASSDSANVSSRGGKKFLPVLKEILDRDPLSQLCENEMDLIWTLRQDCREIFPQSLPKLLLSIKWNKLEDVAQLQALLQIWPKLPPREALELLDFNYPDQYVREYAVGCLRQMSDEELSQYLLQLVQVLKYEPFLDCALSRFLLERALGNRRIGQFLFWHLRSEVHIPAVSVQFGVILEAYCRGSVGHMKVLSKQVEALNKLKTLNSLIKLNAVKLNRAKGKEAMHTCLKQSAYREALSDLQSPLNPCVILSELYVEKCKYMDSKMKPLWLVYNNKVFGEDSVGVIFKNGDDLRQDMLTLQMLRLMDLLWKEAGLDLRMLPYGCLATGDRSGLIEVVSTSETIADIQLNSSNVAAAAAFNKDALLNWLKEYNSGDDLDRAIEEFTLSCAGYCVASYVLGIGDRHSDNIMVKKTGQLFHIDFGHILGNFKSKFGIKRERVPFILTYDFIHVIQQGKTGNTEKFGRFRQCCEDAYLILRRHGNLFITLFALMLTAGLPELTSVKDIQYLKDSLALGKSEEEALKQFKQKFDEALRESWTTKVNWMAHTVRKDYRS
Summary of the method: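 p110β full-length/p85 iSH2 construct (BV-949), 25 nM, with 1 μM ATP and 10 μg/mL phosphatidylinositol in 10 mM Tris pH 7.5, 3 mM MgCl2, 50 mM NaCl, 0.05% CHAPS, 1 mM DTT. 60 min at room temperature; ATP remaining read by Kinase-Glo luminescence. IC50 from 8-point four-parameter logistic fit.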

mTOR = biological target: T2, mTOR (Homo sapiens, UniProt P42345); assay: Biochemical assay for m-TOR by TR-FRET; settings: 8 μM ATP, 400 nM GFP-4EBP1, 0.5 nM mTOR
T2 construct: purchased Invitrogen Corporation (Carlsbad/CA, USA) PV4753
T2 sequence (P42345 1360-2549 limits assumed): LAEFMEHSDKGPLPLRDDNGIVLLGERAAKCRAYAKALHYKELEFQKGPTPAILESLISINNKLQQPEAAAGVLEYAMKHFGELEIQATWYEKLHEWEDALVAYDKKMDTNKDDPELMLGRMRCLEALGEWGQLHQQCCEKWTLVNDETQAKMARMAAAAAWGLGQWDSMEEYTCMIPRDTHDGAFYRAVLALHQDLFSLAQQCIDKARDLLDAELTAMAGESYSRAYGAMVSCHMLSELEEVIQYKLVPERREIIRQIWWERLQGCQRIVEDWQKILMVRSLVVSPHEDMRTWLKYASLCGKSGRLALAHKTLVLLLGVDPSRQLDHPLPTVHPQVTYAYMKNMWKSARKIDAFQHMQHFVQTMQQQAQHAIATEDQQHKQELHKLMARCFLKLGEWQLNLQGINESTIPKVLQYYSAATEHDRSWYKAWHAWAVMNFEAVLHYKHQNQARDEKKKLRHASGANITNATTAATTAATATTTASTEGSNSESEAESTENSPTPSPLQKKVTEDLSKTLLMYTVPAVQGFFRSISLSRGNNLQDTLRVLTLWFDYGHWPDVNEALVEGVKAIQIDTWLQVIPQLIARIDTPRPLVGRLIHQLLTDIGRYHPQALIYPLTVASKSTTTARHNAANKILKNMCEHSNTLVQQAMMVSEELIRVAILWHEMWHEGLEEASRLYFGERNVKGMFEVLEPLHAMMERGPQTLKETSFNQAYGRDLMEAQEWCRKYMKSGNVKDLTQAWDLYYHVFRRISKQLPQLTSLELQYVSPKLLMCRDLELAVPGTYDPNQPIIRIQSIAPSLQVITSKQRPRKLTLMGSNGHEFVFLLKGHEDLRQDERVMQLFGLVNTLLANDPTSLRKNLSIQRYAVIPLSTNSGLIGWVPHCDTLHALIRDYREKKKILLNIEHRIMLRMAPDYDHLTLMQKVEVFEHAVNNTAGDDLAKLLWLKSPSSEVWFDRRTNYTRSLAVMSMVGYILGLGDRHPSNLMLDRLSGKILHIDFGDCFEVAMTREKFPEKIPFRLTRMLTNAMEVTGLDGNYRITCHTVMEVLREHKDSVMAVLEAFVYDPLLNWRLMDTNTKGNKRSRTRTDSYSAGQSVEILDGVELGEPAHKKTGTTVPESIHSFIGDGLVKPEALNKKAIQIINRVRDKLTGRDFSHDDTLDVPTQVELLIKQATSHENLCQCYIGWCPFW
Summary of the method: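 mTOR (0.5 nM) was incubated at rt with ATP (8 μM final) and GFP-4EBP1 (400 nM final) in 50 mM HEPES pH 7.5, 10 mM MnCl2, 50 mM NaCl, 1 mM EGTA, 1 mM DTT. EDTA stop with Tb3+-anti-p4EBP1 [pThr46] antibody (0.5 nM); TR-FRET read 15 min later.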

PI3K alpha = biological target: T3, PI3K alpha (Homo sapiens, UniProt P42336); assay: PI3K alpha kinase assay (Kinase-Glo luminescence); type: biochemical
T3 construct: p85(iSH2) fusion partner (see partner chain) (N); His tag (C); made in house; host or cells: baculovirus; Tn5 (Trichoplusia ni) or TiniPro insect cells
T3 sequence (P42336 with tags, fused parts or gaps limits assumed): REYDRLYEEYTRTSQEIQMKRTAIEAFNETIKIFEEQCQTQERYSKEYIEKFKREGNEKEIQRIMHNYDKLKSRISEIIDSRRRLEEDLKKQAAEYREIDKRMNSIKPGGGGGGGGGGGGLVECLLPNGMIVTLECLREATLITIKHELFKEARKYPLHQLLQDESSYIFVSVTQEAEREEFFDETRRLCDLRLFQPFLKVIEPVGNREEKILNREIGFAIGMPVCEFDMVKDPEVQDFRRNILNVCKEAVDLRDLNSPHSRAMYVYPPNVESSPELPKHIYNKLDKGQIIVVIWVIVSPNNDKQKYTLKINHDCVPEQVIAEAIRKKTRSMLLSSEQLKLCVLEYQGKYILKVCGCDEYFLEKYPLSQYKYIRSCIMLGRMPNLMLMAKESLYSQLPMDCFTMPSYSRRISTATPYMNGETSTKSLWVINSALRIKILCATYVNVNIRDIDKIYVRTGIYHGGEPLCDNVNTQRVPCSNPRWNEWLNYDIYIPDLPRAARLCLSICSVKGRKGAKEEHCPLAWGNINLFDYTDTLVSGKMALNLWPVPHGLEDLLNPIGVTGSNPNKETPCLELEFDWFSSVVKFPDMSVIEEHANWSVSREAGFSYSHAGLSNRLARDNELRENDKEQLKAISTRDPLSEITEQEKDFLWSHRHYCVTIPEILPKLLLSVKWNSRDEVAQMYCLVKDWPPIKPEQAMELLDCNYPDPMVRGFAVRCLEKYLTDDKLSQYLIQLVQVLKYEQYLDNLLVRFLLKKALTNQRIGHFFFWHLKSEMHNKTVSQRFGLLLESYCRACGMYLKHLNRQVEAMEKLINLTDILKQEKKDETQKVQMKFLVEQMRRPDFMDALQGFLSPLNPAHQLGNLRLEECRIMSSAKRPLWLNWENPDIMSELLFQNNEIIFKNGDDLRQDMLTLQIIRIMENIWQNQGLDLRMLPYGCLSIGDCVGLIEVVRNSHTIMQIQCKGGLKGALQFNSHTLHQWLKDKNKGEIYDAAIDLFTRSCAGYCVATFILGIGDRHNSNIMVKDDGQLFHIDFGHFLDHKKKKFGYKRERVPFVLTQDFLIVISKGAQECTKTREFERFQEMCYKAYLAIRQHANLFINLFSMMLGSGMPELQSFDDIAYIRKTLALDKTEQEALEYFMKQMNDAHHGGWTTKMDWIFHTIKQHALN
Summary of the method: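 Compounds are titrated at 8 concentrations and mixed with PI3Kα protein (EMV B1075, 10 nM) in phosphatidylinositol (10 μg/mL). ATP at 1 μM starts the 60-minute room-temperature reaction, which is stopped with Kinase-Glo before luminescence reading. Four-parameter curve fitting gives IC50.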

In the case of `CN(C)c1ccc(-c2ccc3ncc4c(c3c2)n(-c2cn(C)nc2Cl)c(=O)n4C)cn1` [Example 4.9, 1-(3-Chloro-1-methyl-1H-pyrazol-4-yl)-8-(6-dimethylamino-pyridin-3-yl)-3-methyl-1,3-dihydro-imidazo[4,5-c]quinolin-2-one], the IC50 (PI3K beta) is reported as 59 nM, the IC50 (mTOR) is reported as 11 nM and the IC50 (PI3K alpha) is reported as 9 nM.
Molecule `CN(C)c1ncc(-c2ccc3ncc4c(c3c2)n(-c2cn(C)nc2Cl)c(=O)n4C)cn1` [Example 6.3, 1-(3-Chloro-1-methyl-1H-pyrazol-4-yl)-8-(2-dimethylamino-pyrimidin-5-yl)-3-methyl-1,3-dihydro-imidazo[4,5-c]quinolin-2-one] has an IC50 (PI3K beta) of 51 nM, an IC50 (mTOR) of 5 nM and an IC50 (PI3K alpha) of 8 nM.
Work on `Cc1nn(C)cc1-n1c(=O)n(C)c2cnc3ccc(-c4cnc(N)c(C(F)(F)F)c4)cc3c21` [Example 25.1, 8-(6-Amino-5-trifluoromethyl-pyridin-3-yl)-1-(1,3-dimethyl-1H-pyrazol-4-yl)-3-methyl-1,3-dihydro-imidazo[4,5-c]quinolin-2-one] yielded an IC50 (PI3K beta) of 19 nM, an IC50 (mTOR) of 9 nM and an IC50 (PI3K alpha) of 14 nM.
With `Cc1cc(-n2c(=O)n(C)c3cnc4ccc(-c5cnc(N)c(C(F)(F)F)c5)cc4c32)n(C)n1` [Example 25.6, 8-(6-Amino-5-trifluoromethyl-pyridin-3-yl)-1-(2,5-dimethyl-2H-pyrazol-3-yl)-3-methyl-1,3-dihydro-imidazo[4,5-c]quinolin-2-one] the IC50 (PI3K beta) was 133 nM, the IC50 (mTOR) was 82 nM and the IC50 (PI3K alpha) was 41 nM.
With `CNS(=O)(=O)c1cccc(-c2ccc3ncc4c(c3c2)n(-c2cn(C)nc2C)c(=O)n4C)c1` [Example 39, 3-[1-(1,3-Dimethyl-1H-pyrazol-4-yl)-3-methyl-2-oxo-2,3-dihydro-1H-imidazo[4,5-c]quinolin-8-yl]-N-methyl-benzenesulfonamide] the IC50 (PI3K beta) was 13 nM, the IC50 (mTOR) was 69 nM and the IC50 (PI3K alpha) was under 3 nM.
In the case of `Cc1nn(C)cc1-n1c(=O)n(C)c2cnc3ccc(-c4cccc(NS(C)(=O)=O)c4)cc3c21` [Example 47, N-{3-[1-(1,3-dimethyl-1H-pyrazol-4-yl)-3-methyl-2-oxo-2,3-dihydro-1H-imidazo[4,5-c]quinolin-8-yl]-phenyl}-methanesulfonamide], the IC50 (PI3K beta) is reported as 811 nM, the IC50 (mTOR) is reported as 281 nM and the IC50 (PI3K alpha) is reported as 73 nM.
With `CC(C)Oc1cncc(-c2ccc3ncc4c(c3c2)n(-c2cn(C)nc2Cl)c(=O)n4C)c1` [Example 58.2, 1-(3-Chloro-1-methyl-1H-pyrazol-4-yl)-8-(5-isopropoxy-pyridin-3-yl)-3-methyl-1,3-dihydro-imidazo[4,5-c]quinolin-2-one] the IC50 (PI3K beta) was 5 nM, the IC50 (mTOR) was 3 nM and the IC50 (PI3K alpha) was 6 nM.
With `Cc1nn(C)cc1-n1c(=O)n(C)c2cnc3ccc(-c4cncc(OC5CCC5)c4)cc3c21` [Example 60.1, 8-(5-Cyclobutoxy-pyridin-3-yl)-1-(1,3-dimethyl-1H-pyrazol-4-yl)-3-methyl-1,3-dihydro-imidazo[4,5-c]quinolin-2-one] the IC50 (PI3K beta) was 3 nM, the IC50 (mTOR) was 5 nM and the IC50 (PI3K alpha) was under 3 nM.
`Cc1nn(C)cc1-n1c(=O)n(C)c2cnc3ccc(-c4ccc(-c5ncc[nH]5)cc4)cc3c21` [Example 77, 1-(1,3-Dimethyl-1H-pyrazol-4-yl)-8-[4-(1H-imidazol-2-yl)-phenyl]-3-methyl-1,3-dihydro-imidazo[4,5-c]quinolin-2-one] was tested, and the IC50 (PI3K beta) was 24 nM, the IC50 (mTOR) was under 3 nM and the IC50 (PI3K alpha) was 5 nM.
`Cc1nn(C)cc1-n1c(=O)n(C)c2cnc3ccc(-c4cccc(OC(C)C)c4)cc3c21` [Example 82, 1-(1,3-Dimethyl-1H-pyrazol-4-yl)-8-(3-isopropoxy-phenyl)-3-methyl-1,3-dihydro-imidazo[4,5-c]quinolin-2-one] gave an IC50 (PI3K beta) of 154 nM, an IC50 (mTOR) of 27 nM and an IC50 (PI3K alpha) of 39 nM.
`Cc1nn(C)cc1-n1c(=O)n(C)c2cnc3ccc(-c4ccc(N5CCCC5)nc4)cc3c21` [Example 97, 1-(1,3-Dimethyl-1H-pyrazol-4-yl)-3-methyl-8-(6-pyrrolidin-1-yl-pyridin-3-yl)-1,3-dihydro-imidazo[4,5-c]quinolin-2-one] gave an IC50 (mTOR) of 7 nM and an IC50 (PI3K alpha) of 85 nM.
